Measured values from US20120301895A1, “METHODS OF MODULATING BINDING OF SON OF SEVENLESS TO PHOSPHATIDIC ACID AND IDENTIFYING COMPOUNDS THAT MODULATE SUCH BINDING” (THE RESEARCH FOUNDATION OF STATE UNIVERSITY OF NEW YORK, priority 2007, published 2012).

What was measured:
[1] = system: human prostate cancer cells; settings: Shigemura et al. 2007; cited from earlier work
MDA-MB-231 cells = experiment: Cell viability (trypan blue) and PARP cleavage in MDA-MB-231 cells; type: cell-based, human; settings: honokiol 20 μM
Description: MDA-MB-231 cells were plated in DMEM with 10% serum for 48 hr then changed to DMEM with either 10% or 0.5% serum overnight as indicated. Honokiol (20 μM) or control ethanol was then added either at the time of changing media (24 hr time point), or 4 hr prior to harvesting (4 hr time point) as indicated. The cells were then examined for cell viability and PARP cleavage as described previously (Chen et al., “Alternative Phospholipase D/mTOR Survival Signal in Human Breast Cancer Cells,” Oncogene 24:672-9 (2005), which is hereby incorporated by reference in its entirety). The Western blot is representative of at least three independent experiments. The error bars for cell viability represent the standard deviation for triplicate samples from a representative experiment repeated three times.
Cell viability was determined by trypan blue exclusion. After various treatments, cells were harvested, washed, and treated with trypan blue at a concentration of 0.4% w/v. After 10 min, trypan blue uptake (dead cells) was determined by counting on a hemocytometer. Apoptosis was evaluated by examination of cleavage of the caspase 3 substrate PARP as described previously (Chen et al., “Alternative Phospholipase D/mTOR Survival Signal in Human Breast Cancer Cells,” Oncogene 24:672-9 (2005), which is hereby incorporated by reference in its entirety).
The effect of honokiol on cell viability and cleavage of the caspase 3 substrate poly-(ADP-ribose) polymerase (“PARP”)—an indicator of apoptotic cell death—was examined in the MDA-MB-231 and 786-0 cells. The effect of honokiol on cell viability and PARP cleavage in 0.5% serum was examined after 4 hr and 24 hr honokiol treatment and in 10% serum after 24 hr honokiol treatment in the MDA-MB-231 cells. […] Importantly, the cells were still viable after 4 hr of honokiol treatment—the time point used in FIGS. 12 and 13 where the effect of honokiol upon PLD activity and on S6K and 4E-BP1 phosphorylation was examined.

S6K and 4E-BP1 = experiment: Phosphorylation of mTOR substrates S6K and 4E-BP1 in MDA-MB-231 cells (Western blot); type: cell-based, human; settings: honokiol 20 μM, 0.5% serum
Description: In FIG. 15A, MDA-MB-231 cells were plated in DMEM with 10% serum. 48 hr later the cells were shifted to 0.5% for 16 hr. Honokiol (20 μM) or control ethanol was then added for the indicated times. The cells were then harvested and analyzed for levels of S6K, phosphorylated S6K (P-S6K), 4E-BP1, and P-4E-BP1 by Western blot analysis as described previously (Zheng et al., “Phospholipase D Couples Survival and Migration Signals in Response to Stress in Human Breast Cancer Cells,” J. Biol. Chem. 281:15862-8 (2006), which is hereby incorporated by reference in its entirety). In FIG. 15B, 786-O cells were plated and then shifted to media containing 0.5% serum 24 hr later. 18 hr later, the cells were treated with 1-Bt0H (0.8%), honokiol (Hon) (20 μM), and t-BtOH (0.8%) as indicated. Cell lysates were prepared 4 hr later and examined for HIF2α and actin expression by Western lot analysis. The experiment shown is representative of two independent experiments.
Extraction of proteins from cultured cells and Western blot analysis of extracted proteins was performed using the ECL system (Amersham) as described previously (Chen et al., “Alternative Phospholipase D/mTOR Survival Signal in Human Breast Cancer Cells,” Oncogene 24:672-9 (2005), which is hereby incorporated by reference in its entirety). […]

C=CCc1ccc(O)c(-c2ccc(O)c(CC=C)c2)c1 [honokiol, Honokiol]
bone metastatic growth of human prostate cancer cells [1]: inhibit the bone metastatic growth | cell viability (MDA-MB-231 cells; 4 hr, 0.5% serum): still viable | PARP cleavage (MDA-MB-231 cells; 24 hr, 0.5% serum): increased | cell viability (MDA-MB-231 cells; 24 hr, 0.5% serum): reduced | PARP cleavage increased (MDA-MB-231 cells; 24 hr, 10% serum): not | cell viability reduced (MDA-MB-231 cells; 24 hr, 10% serum): not | phosphorylation of 4E-BP1 (S6K and 4E-BP1): suppressed | phosphorylation of S6K (S6K and 4E-BP1): suppressed
